From US8710044B2, “Bicyclic azaheterocyclic carboxamides” (Merck Patent GmbH, priority 2010, dated 2014) come the findings set out here.

Molecules are shown by their SMILES. pIC50: −log10 of the molar value.

In the assay the target is T1, P70S6K (T412E mutant, Millipore) (Homo sapiens, UniProt P23443, T412E).
T1 construct: purchased Millipore
T1 sequence (P23443 whole entry T412E): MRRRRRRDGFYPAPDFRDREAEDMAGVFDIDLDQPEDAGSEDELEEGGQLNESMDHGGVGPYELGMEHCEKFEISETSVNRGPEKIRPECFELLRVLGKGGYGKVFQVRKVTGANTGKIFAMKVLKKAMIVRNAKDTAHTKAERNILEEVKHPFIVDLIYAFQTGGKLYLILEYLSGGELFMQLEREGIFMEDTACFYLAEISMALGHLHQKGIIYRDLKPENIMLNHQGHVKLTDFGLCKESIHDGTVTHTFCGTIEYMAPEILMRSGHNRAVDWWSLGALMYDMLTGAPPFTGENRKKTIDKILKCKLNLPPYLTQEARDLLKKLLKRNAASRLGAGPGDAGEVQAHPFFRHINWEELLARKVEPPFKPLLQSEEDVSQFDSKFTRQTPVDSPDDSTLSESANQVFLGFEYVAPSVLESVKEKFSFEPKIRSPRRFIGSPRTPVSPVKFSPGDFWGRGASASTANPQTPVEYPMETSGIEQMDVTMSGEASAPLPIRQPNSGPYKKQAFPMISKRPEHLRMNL
Put plainly: P70S6K Enzyme Assay. Conditions: 3 nM enzyme, 24 μM ATP, 1 μM FITC-AHA-[…]-OH substrate peptide, 90 min at 25° C., Caliper Lab Chip 3000. Format: biochemical. The protocol:
P70S6K inhibitor compounds are diluted and plated in 96 well plates. […] The reaction is incubated for 90 min at 25° C., before the addition of 10 mM EDTA to stop the reaction. The proportion of substrate and product (phosphorylated) peptide is analysed on a Caliper Life Sciences Lab Chip 3000, using a pressure of −1.4 psi, and upstream and downstream voltages of −3000 and −700 respectively. Product peaks are resolved before substrate peaks on the resulting chromatograms.
The pIC50 is −log10 of the IC50, conventionally taken in molar units. As for `CCc1nc(N[C@H](CNC)c2ccccc2)c2cccc(C(N)=O)c2n1` [Example 23, 2-Ethyl-4-{[(1S)-2-(methylamino)-1-phenylethyl]amino}quinazoline-8-carboxamide], the pIC50 was 7.96.
`CCc1nc(N[C@H](CNC)c2cccc(F)c2Cl)c2cccc(C(N)=O)c2n1` [Example 60, (S)-4-((1-(2-chloro-3-fluorophenyl)-2-(methylamino)ethyl)amino)-2-ethylquinazoline-8-carboxamide] had a pIC50 of 8.05.
With `CNC[C@@H](Nc1nc(C)nc2c(C(N)=O)cccc12)c1ccccc1` [Example 26, 2-Methyl-4-{[(1S)-2-(methylamino)-1-phenylethyl]amino}quinazoline-8-carboxamide] the figure was 8.19; with `CNC[C@@H](Nc1nc(C)nc2c(C(N)=O)cccc12)c1ccc(F)cc1` [Example 16, 4-{[(1S)-1-(4-fluorophenyl)-2-(methylamino)ethyl]amino}-2-methylquinazoline-8-carboxamide], 8.55.
As for `CCc1nc(N[C@H](CNC)c2cccc(F)c2)c2cccc(C(N)=O)c2n1` [Example 20, 2-Ethyl-4-{[(1S)-1-(3-fluorophenyl)-2-(methylamino)ethyl]amino}quinazoline-8-carboxamide], the figure is 8.71; as for `Cc1nc(N[C@H](CN2CCC2)c2ccc(Cl)cc2)c2cccc(C(N)=O)c2n1` [Example 31], 8.59; as for `Cc1nc(N[C@H](CN2CCC2)c2ccccc2)c2cccc(C(N)=O)c2n1` [Example 29], 8.23.
As for `Cc1nc(N[C@H](CN2CCC2)c2cccc(F)c2)c2cccc(C(N)=O)c2n1` [Example 34], the figure is 8.15; as for `CCc1nc(N[C@H](CN2CCC2)c2ccc(F)cc2)c2cccc(C(N)=O)c2n1` [Example 36], 7.52.
In turn, `CCc1nc(N[C@H](CNC)c2ccc(Cl)cc2)c2cccc(C(N)=O)c2n1` [Example 24, 4-{[(1S)-1-(4-Chlorophenyl)-2-(methylamino)ethyl]amino}-2-ethylquinazoline-8-carboxamide] gave a pIC50 of 8.85.
Turning to `CNC[C@@H](Nc1nc(C(F)(F)F)nc2c(C(N)=O)cccc12)c1cccc(F)c1` [Example 27, 4-{[(1S)-1-(3-Fluorophenyl)-2-(methylamino)ethyl]amino}-2-(trifluoromethyl)-quinazoline-8-carboxamide], the pIC50 is 8.37.
As for `CNC[C@@H](Nc1nc(C)nc2c(C(N)=O)cccc12)c1c(F)cccc1F` [Example 55], the figure is 8.22.
With `NC[C@@H](Nc1nc(C(F)(F)F)nc2c(C(N)=O)cccc12)c1ccccc1` [Example 51, 4-((S)-2-Amino-1-phenyl-ethylamino)-2-trifluoromethyl-quinazoline-8-carboxylic acid amide] the figure was 8.10.
Turning to `CNC[C@@H](Nc1nc(C)nc2c(C(N)=O)cccc12)c1cc(F)c(F)cc1F` [Example 56, (S)-2-methyl-4-((2-(methylamino)-1-(2,4,5-trifluorophenyl)ethyl)amino)quinazoline-8-carboxamide], the pIC50 was 9.00.
With `CNC[C@@H](Nc1nc(C)nc2c(C(N)=O)cccc12)c1ccc(C(F)(F)F)cc1` [Example 48, 2-Methyl-4-[(S)-2-methylamino-1-(4-trifluoromethyl-phenyl)-ethylamino]-quinazoline-8-carboxylic acid amide] the figure was 9.00.
In turn, `CNC[C@@H](Nc1nc(C)nc2c(C(N)=O)cccc12)c1ccc(F)cc1F` [Example 54] had a pIC50 of 8.15.
`CNC[C@@H](Nc1nc(C)nc2c(C(N)=O)cccc12)c1cccc(Cl)c1` [Example 22, 4-{[(1S)-1-(3-Chlorophenyl)-2-(methylamino)ethyl]amino}-2-methylquinazoline-8-carboxamide]: the pIC50 was 9.01.
For the compound `CNC[C@@H](Nc1nc(C)nc2c(C(N)=O)cccc12)c1ccc(F)cc1C(F)(F)F` [Example 50, 4-[(1S)-1-[4-fluoro-2-(trifluoromethyl)phenyl]-2-(methylamino)ethyl]amino-2-methylquinazoline-8-carboxamide], the pIC50 was 6.59.
As to `CNC[C@@H](Nc1nc(C)nc2c(C(N)=O)cccc12)c1cc(F)ccc1F` [Example 53], the pIC50 was 8.52.
`CNC[C@@H](Nc1nc(C)nc2c(C(N)=O)cccc12)c1ccc(Cl)cc1` [Example 19, 4-{[(1S)-1-(4-chlorophenyl)-2-(methylamino)ethyl]amino}-2-methylquinazoline-8-carboxamide] had a pIC50 of 9.08.
With `CCc1nc(N[C@H](CNC)c2cccc(Cl)c2)c2cccc(C(N)=O)c2n1` [Example 21, 4-{[(1S)-1-(3-Chlorophenyl)-2-(methylamino)ethyl]amino}-2-ethylquinazoline-8-carboxamide] the figure was 9.06.
With `CCc1nc(N[C@H](CN2CCC2)c2cccc(F)c2)c2cccc(C(N)=O)c2n1` [Example 28] the figure was 7.73.
As for `CNC[C@@H](Nc1nc(C)nc2c(C(N)=O)cccc12)c1cccc(F)c1` [Example 17, 4-{[(1S)-1-(3-fluorophenyl)-2-(methylamino)ethyl]amino}-2-methylquinazoline-8-carboxamide], the figure is 6.86; as for `Cc1nc(N[C@@H](Cc2ccccc2)CN(C)C)c2cccc(C(N)=O)c2n1` [Example 49, 4-((S)-1-Benzyl-2-dimethylamino-ethylamino)-2-methyl-quinazoline-8-carboxylic acid amide], 6.34; as for `CNC[C@@H](Nc1nc(C(C)C)nc2c(C(N)=O)cccc12)c1ccc(Cl)cc1` [Example 18, 4-{[(1S)-1-(4-chlorophenyl)-2-(methylamino)ethyl]amino}-2-isopropylquinazoline-8-carboxamide], 7.64.
In turn, `CCc1nc(N[C@H](CN2CCC2)c2ccc(Cl)cc2)c2cccc(C(N)=O)c2n1` [Example 32] gave a negative logarithm of the IC50 (pIC50) of 8.26.
As for `CNC[C@@H](Nc1nc(C)nc2c(C(N)=O)cccc12)c1ccc(OC(F)(F)F)c(Cl)c1` [Example 52], the figure is 9.00; as for `CNC[C@@H](Nc1nc(C)nc2c(C(N)=O)cccc12)c1cc(F)ccc1OC` [Example 47, 4-[(S)-1-(5-Fluoro-2-methoxy-phenyl)-2-methylamino-ethylamino]-2-methyl-quinazoline-8-carboxylic acid amide], 7.92; as for `Cc1nc(N[C@H](CN2CCC2)c2ccc(F)cc2)c2cccc(C(N)=O)c2n1` [Example 33], 7.36.
With `CNC[C@@H](Nc1nc(C)nc2c(C(N)=O)cccc12)c1ccc(Cl)c(Cl)c1` [Example 61] the figure was 6.48.
In the case of `CCc1nc(N[C@H](CN2CCC2)c2ccccc2)c2cccc(C(N)=O)c2n1` [Example 30], the pIC50 is 7.47.
